Test results taken from patent US20100190182A1, “DIAGNOSTIC COMPOSITION AND METHOD FOR THE DETECTION OF A TRICHINELLA INFECTION” (priority 2007, published 2010).
Where no end group is shown, it is not given here. The star is where a group is joined. 5FAM = O=C1OC2(c3ccc(O)cc3Oc3cc(O)ccc32)c2ccc(C(=O)*)cc21

Legend:
[1] = tested on: anti-FLAG M2 monoclonal antibody; test: FPA analysis of FLAG model peptide tracers with anti-FLAG antibody; assay type: binding; conditions: TBS pH 7.2
Description: The FLAG peptide (a well known tag, e.g. used for immuno affinity purification) was used as a model peptide to develop a labelling strategy for peptide tracers which allows chemical linking of a fluorophore to the peptide to reduce or inhibit rotation of the fluorophore relative to the peptide. The FLAG peptide and an elongated FLAG peptide were used to and coupled to 5-Carboxyfluorescein (5-CF) with a linker containing the following amino acid composition
FPA analysis of the FLAG Model peptide shown in Table 1 was performed by the following procedure.
The FLAG Model peptide tracers were diluted in TBS (containing 25 mM Tris, 0.15M NaCl, NP40 0.05%, pH 7.2) at a concentration of 8.1 nM or 2.7 nM, respectively in a single well of a black colored 96-well plate. The plate was incubated for 2 minutes at room temperature on an orbital shaker set at 1350 rpm and then incubated for another minute without shaking. Blank measurement of the sample was then performed by reading the fluorescence polarisation in a fluorescence reader (Safir2, Tecan, Switzerland) with excitation and emission wavelength set at 470 nm and 520 nm, respectively.
Then, 1, 3 or 10 molar equivalence of the anti-FLAG M2 monoclonal antibody (Sigma, Switzerland), respectively, were added and the plate was incubated at room temperature with shaking (1350 rpm) for 3 minutes and then for an additional minute without shaking. Then the plate was measured.
(§1) The mP values were calculated according to the following formula: […]
(§2) The ΔmP values were obtained by subtracting the mP values of the negative serum from the positive sera:
ΔmP=mPpositive serum−mPnegative serum

[2] = tested on: Trichinella positive serum (antibodies against Trichinella); test: FPA discrimination between Trichinella positive and Trichinella negative serum; assay type: binding; conditions: mP positive serum minus mP negative serum; tracer 5 nM; buffer differs per tracer as listed in Table 2
Protocol: Table 2 depicts for some of the Trichinella peptides their ability to discriminate between a Trichinella positive and a Trichinella negative serum sample using fluorescence polarisation assay (FPA).
FPA analysis of the tracers shown in Table 2 was performed by the following procedure. A […] aliquot of the positive or negative serum was diluted with […] of buffer (PBS with detergent as indicated in Table 2) in a single well of a black coloured 96-well plate. The plate was incubated for 2 minutes at room temperature on an orbital shaker set at 1350 rpm and then incubated for another minute without shaking. Blank measurement of the sample was then performed by reading the fluorescence polarisation in a fluorescence reader (Safire2, Tecan, Switzerland) with excitation and emission wavelength set at 470 nm and 520 nm, respectively. Then, […] tracer was added to the reaction mixture to a final concentration of 5 nM and the plate was incubated at room temperature with shaking (1350 rpm) for 15 minutes and then for an additional minute without shaking. Then the plate was measured.
as §1, §2
ΔmP=mPpositive serum=mPnegative serum

[3] = tested on: Trichinella positive sera (antibodies against Trichinella); test: ELISA discrimination between Trichinella positive and negative serum using SS2 peptides; assay type: binding, pig; conditions: peptide-coated plate; serial two fold dilutions of serum; read at 405 nm; FIGS. 8a and b
Protocol: FIGS. 8a and b show the results of 2 of the preferred SS2 peptides (SEQ IDs NO 7 and 8) tested in ELISA assays. […] Serial two fold dilutions of the serum sample were tested.
Single wells of a 96-well microtitre plate were coated with the SS2 peptides ([…]) at a concentration of […] in carbonate buffer 0.1 M (pH 9.5) overnight at 4° C. The plate was washed 4 times with 0.05% Tween 80 and then blocked with a PBS buffer containing 2% I-block and 0.1% Tween 20 for 90 minutes at 25° C.±3° C. Pig sera were diluted 50-fold in phosphate buffered saline and serial 2-fold dilutions were incubated in the microtitre plate with shaking (500 rpm) for 2 hours at room temperature. The plates were washed 4 times with 0.05% Tween 80 Detection of the bound antibodies was performed by incubation with a goat anti-pig IgG(Fc)-POD conjugate (Bethyl Laboratories, USA) at a concentration of 1.3 ug/ml for 1 h at RT with shaking (500 rpm). Following four more washes, 2′-azino-bis(3-ethylbenzthiazoline-6-sulphonic acid) (ABTS) substrate solution was added and incubated for 30 minutes, colour development was measured in a ELISA reader (Tecan, Switzerland) at a wavelength of 405 nm.

5-CF-Trp(2)-Gly(9)-FLAG [4] = test: fluorescence polarisation assay; tracer 2.7 nM, 1 molar equivalent of antibody
5-CF-Trp-Gly(9)-FLAG [5] = test: as above
5-CF-Pro-Gly(9)-FLAG [6] = test: as above
5-CF-Trp(2)-Gly(9)-FLAG [7] = test: fluorescence polarisation assay; tracer 8.1 nM, 3 molar equivalents of antibody
5-CF-Trp-Gly(9)-FLAG [8] = test: as above
5-CF-Pro-Gly(9)-FLAG [9] = test: as above
5-CF-Trp(2)-Gly(9)-FLAG [10] = test: fluorescence polarisation assay; tracer 2.7 nM, 3 molar equivalents of antibody
5-CF-Trp-Gly(9)-FLAG [11] = test: as above
5-CF-Pro-Gly(9)-FLAG [12] = test: as above
5-CF-Trp(2)-Gly(9)-FLAG [13] = test: fluorescence polarisation assay; tracer 2.7 nM, 10 molar equivalents of antibody
5-CF-Trp-Gly(9)-FLAG [14] = test: as above
5-CF-Pro-Gly(9)-FLAG [15] = test: as above
5-CF-Trp(2)-Gly(9)-FLAG [16] = test: fluorescence polarisation assay; tracer 8.1 nM, 1 molar equivalent of antibody
5-CF-Trp-Gly(9)-FLAG [17] = test: as above
5-CF-Pro-Gly(9)-FLAG [18] = test: as above
5-CF-Trp(2)-Gly(9)-FLAG [19] = test: fluorescence polarisation assay; tracer 8.1 nM, 10 molar equivalents of antibody
5-CF-Trp-Gly(9)-FLAG [20] = test: as above
5-CF-Pro-Gly(9)-FLAG [21] = test: as above
[22] = tracer 2.7 nM, 1 molar equivalent anti-FLAG antibody
[23] = tracer 2.7 nM, 3 molar equivalents anti-FLAG antibody
[24] = tracer 2.7 nM, 10 molar equivalents anti-FLAG antibody
[25] = tracer 8.1 nM, 1 molar equivalent anti-FLAG antibody
[26] = tracer 8.1 nM, 3 molar equivalents anti-FLAG antibody
[27] = tracer 8.1 nM, 10 molar equivalents anti-FLAG antibody

Work on “5-CF-Pro-Gly(9)-Asp-Tyr-Lys-Asp-Asp-Asp-Asp-Lys [S-CF-Pro-Gly(9)-FLAG]” yielded a ΔmP values [1, 22] of 5 mP, a ΔmP values [1, 23] of 15 mP and a ΔmP values [1, 24] of 33 mP. It also gave a ΔmP values [1, 25] of 14 mP, a ΔmP values [1, 26] of 33 mP and a ΔmP values [1, 27] of 62 mP.
“5-CF-Trp(2)-Gly(9)-Asp-Tyr-Lys-Asp-Asp-Asp-Asp-Lys (5FAM-WWGGGGGGGGGDYKDDDDK) [5-CF-Trp(2)-Gly(9)-FLAG, FLAG model peptide tracer coupled to 5-Carboxyfluorescein via Trp-Trp linker]” showed a ΔmP values [1, 22] of 5 mP, a ΔmP values [1, 23] of 35 mP and a ΔmP values [1, 24] of 97 mP. The ΔmP values [1, 25] was 37 mP, the ΔmP values [1, 26] was 78 mP and the ΔmP values [1, 27] was 124 mP.
Substance “5-CF-Trp-Gly(9)-Asp-Tyr-Lys-Asp-Asp-Asp-Asp-Lys (5FAM-WGGGGGGGGGDYKDDDDK) [5-CF-Trp-Gly(9)-FLAG, FLAG model peptide tracer coupled to 5-Carboxyfluorescein via Trp linker]” has a ΔmP values [1, 22] of 9 mP, a ΔmP values [1, 23] of 27 mP and a ΔmP values [1, 24] of 55 mP. The ΔmP values [1, 25] was 19 mP, the ΔmP values [1, 26] was 50 mP and the ΔmP values [1, 27] was 86 mP.
“ALRLKRFAK (listed as Trichinella spiralis) [SEQ ID NO 28, peptide of Trichinella spiralis 53 kDa excretory/secretory antigen]” gave a ΔmP [2] of 41 mP.
In the case of “KEADKSALRL KRFAKPPKGF F (KEADKSALRLKRFAKPPKGFF; listed as Trichinella spiralis) [SEQ ID NO 27, peptide of Trichinella spiralis 53 kDa excretory/secretory antigen]”, the ΔmP [2] is reported as 31 mP.
Substance “KPFGDEIDRI LRKAF (KPFGDEIDRILRKAF; listed as Trichinella spiralis) [SEQ ID NO 26, peptide of Trichinella spiralis 53 kDa excretory/secretory antigen]” has a ΔmP [2] of 31 mP.
With “LSTASRPTNP YTGSRPTSPS SGSRP (LSTASRPTNPYTGSRPTSPSSGSRP; listed as Trichinella spiralis) [SEQ ID NO 7, peptide of Trichinella spiralis newborn larvae-specific protein SS2]” the “ability to discriminate between negative and positive sera in ELISA” value [3] was “able to discriminate between negative and positive sera” and the ΔmP [2] was 20 mP.
Substance “MHKITHKSIV SRHTFAVYLL VSGQK (MHKITHKSIVSRHTFAVYLLVSGQK; listed as Trichinella spiralis) [SEQ ID NO 5, peptide of Trichinella spiralis newborn larvae-specific protein SS2; used as FPA tracer]” has a ΔmP [2] of 39 mP.
Work on “NNYRGRQGIA GLGML (NNYRGRQGIAGLGML; listed as Trichinella spiralis) [SEQ ID NO 23, peptide of Trichinella spiralis 53 kDa excretory/secretory antigen]” yielded a ΔmP [2] of 23 mP.
“PTYPSSGSRP TYPSSGSRP (PTYPSSGSRPTYPSSGSRP; listed as Trichinella spiralis) [SEQ ID NO 9, peptide of Trichinella spiralis newborn larvae-specific protein SS2]” gave a ΔmP [2] of 66 mP.
“PTYPSSGSRP TYPSSGSRPT YPYTG (PTYPSSGSRPTYPSSGSRPTYPYTG; listed as Trichinella spiralis) [SEQ ID NO 8, peptide of Trichinella spiralis newborn larvae-specific protein SS2]” was tested, and the “ability to discriminate between negative and positive sera in ELISA” value [3] was “able to discriminate between negative and positive sera” and the ΔmP [2] was 66 mP.
In the case of “QNERQFDENK LKKLLKPLG (QNERQFDENKLKKLLKPLG; listed as Trichinella spiralis) [SEQ ID NO 20, peptide of Trichinella spiralis 53 kDa excretory/secretory antigen]”, the ΔmP [2] is reported as 28 mP.
In the case of “QNERQFDENK LKKLLKPLGK LYKTPSD (QNERQFDENKLKKLLKPLGKLYKTPSD; listed as Trichinella spiralis) [SEQ ID NO 19, peptide of Trichinella spiralis 53 kDa excretory/secretory antigen]”, the ΔmP [2] is reported as 33 mP.
Substance “VGGTDVRPHSH PWQIQLLKSET G (VGGTDVRPHSHPWQIQLLKSETG; listed as Trichinella spiralis) [SEQ ID NO 6, peptide of Trichinella spiralis newborn larvae-specific protein SS2; used as FPA tracer]” has a ΔmP [2] of 35 mP.
For “VVTIFRKNGK TTEVLSL (VVTIFRKNGKTTEVLSL; listed as Trichinella spiralis) [SEQ ID NO 24, peptide of Trichinella spiralis 53 kDa excretory/secretory antigen]”, the ΔmP [2] was 57 mP.
For “VVYSKTSSSR LEMYGSF (VVYSKTSSSRLEMYGSF; listed as Trichinella spiralis) [SEQ ID NO 16, peptide of Trichinella spiralis 43 kDa secreted glycoprotein]”, the ΔmP [2] was 20 mP.
Work on “anti-FLAG M2 monoclonal antibody (Sigma, Switzerland)” yielded a ΔmP (5-CF-Trp(2)-Gly(9)-FLAG [4]) of 5 mP, a ΔmP (5-CF-Trp-Gly(9)-FLAG [5]) of 9 mP and a ΔmP (5-CF-Pro-Gly(9)-FLAG [6]) of 5 mP. The ΔmP (5-CF-Trp(2)-Gly(9)-FLAG [7]) was 78 mP, the ΔmP (5-CF-Trp-Gly(9)-FLAG [8]) was 50 mP and the ΔmP (5-CF-Pro-Gly(9)-FLAG [9]) was 33 mP. For the same substance, the ΔmP (5-CF-Trp(2)-Gly(9)-FLAG [10]) was 35 mP, the ΔmP (5-CF-Trp-Gly(9)-FLAG [11]) was 27 mP and the ΔmP (5-CF-Pro-Gly(9)-FLAG [12]) was 15 mP. It also gave a ΔmP (5-CF-Trp(2)-Gly(9)-FLAG [13]) of 97 mP, a ΔmP (5-CF-Trp-Gly(9)-FLAG [14]) of 55 mP and a ΔmP (5-CF-Pro-Gly(9)-FLAG [15]) of 33 mP. For the same substance, the ΔmP (5-CF-Trp(2)-Gly(9)-FLAG [16]) was 37 mP, the ΔmP (5-CF-Trp-Gly(9)-FLAG [17]) was 19 mP and the ΔmP (5-CF-Pro-Gly(9)-FLAG [18]) was 14 mP. It also gave a ΔmP (5-CF-Trp(2)-Gly(9)-FLAG [19]) of 124 mP, a ΔmP (5-CF-Trp-Gly(9)-FLAG [20]) of 86 mP and a ΔmP (5-CF-Pro-Gly(9)-FLAG [21]) of 62 mP.
